From the supplement of paper PMC11451515

Key:
Settings in all cases: 48 h
SEM cells [1] = assay: cell viability relative to DMSO control; higher = less cytotoxic
In short: (§1)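 Cells were incubated for 48 h at 37°C before CellTiter-Glo One luminescence was read. The cells were NOMO1 or SEM (500 cells/well) or P12-Ichikawa (1000 cells/well) leukemia cells, adapted for at least four passages in each medium and seeded in 1536-well plates (5 μl). Dosing used library compounds in DMSO applied by pin over 11 threefold points, 47 μM to 0.79 nM. Viability is the per-plate percentage of DMSO wells, with cell-free wells as background.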

NOMO1 [2] = assay: as above
In short: as §1

P12-Ichikawa [3] = assay: as above
In short: as §1

SEM cells [4] = assay: AUC of viability dose-response curve (% viability x log10 dose units); higher = less sensitive
In short: (§2)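 Leukemia cells adapted to each medium (500 or 1000 cells/well, 1536-well plates) were exposed to library compounds in DMSO for 48 h at 37°C at 11 threefold doses, 47 μM to 0.79 nM. Luminescence by CellTiter-Glo One was normalised per plate to DMSO and cell-free wells, then fitted with a four-parameter log-logistic curve on log10 dose. Curves above full viability were scaled and quality-control failures removed before area under the curve was integrated by trapezoidal rule.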

P12-Ichikawa [5] = assay: as above
In short: as §2

NOMO1 [6] = assay: as above
In short: as §2

Cc1nc(NC(=O)N2CCC[C@H]2C(N)=O)sc1-c1ccnc(C(C)(C)C(F)(F)F)c1
cell viability [%]
Settings | NOMO1 [2] | P12-Ichikawa [3] | SEM cells [1]
HPLM + 10% dialyzed FBS, 0.000781 µM | 99.5 | 96.4 | 91.6
HPLM + 10% dialyzed FBS, 0.00234 µM | 96.2 | 100 | 98.2
HPLM + 10% dialyzed FBS, 0.00702 µM | 105 | 97.1 | 84.2
HPLM + 10% dialyzed FBS, 0.0211 µM | 81.2 | 93.3 | 96.9
HPLM + 10% dialyzed FBS, 0.0632 µM | 85.9 | 97.7 | 93
HPLM + 10% dialyzed FBS, 0.19 µM | 81.5 | 92.4 | 72.5
HPLM + 10% dialyzed FBS, 0.569 µM | 75.9 | 89.8 | 74.4
HPLM + 10% dialyzed FBS, 1.71 µM | 70.1 | 87.6 | 63.3
HPLM + 10% dialyzed FBS, 5.12 µM | 46.2 | 72.2 | 59.1
HPLM + 10% dialyzed FBS, 15.4 µM | 44.4 | 62.9 | 52.7
HPLM + 10% dialyzed FBS, 46.1 µM | 71.7 | 83.2 | 100
RPMI 5 mM glucose + 10% FBS, 0.000781 µM | 86.8 | 89.4 | 98.7
RPMI 5 mM glucose + 10% FBS, 0.00234 µM | 84.8 | 89.2 | 111
RPMI 5 mM glucose + 10% FBS, 0.00702 µM | 88 | 95.4 | 102
RPMI 5 mM glucose + 10% FBS, 0.0211 µM | 82.7 | 93.7 | 121
RPMI 5 mM glucose + 10% FBS, 0.0632 µM | 87.5 | 90.6 | 112
RPMI 5 mM glucose + 10% FBS, 0.19 µM | 80.2 | 86.9 | 91.1
RPMI 5 mM glucose + 10% FBS, 0.569 µM | 79.4 | 79.6 | 97.8
RPMI 5 mM glucose + 10% FBS, 1.71 µM | 77.8 | 76.2 | 86.6
RPMI 5 mM glucose + 10% FBS, 5.12 µM | 56.3 | 57.5 | 74.5
RPMI 5 mM glucose + 10% FBS, 15.4 µM | 55.3 | 48.3 | 68.2
RPMI 5 mM glucose + 10% FBS, 46.1 µM | 82.5 | 77.8 | 119
RPMI 5 mM glucose + 10% dialyzed FBS, 0.000781 µM | 79.6 | 97.9 | 96.3
RPMI 5 mM glucose + 10% dialyzed FBS, 0.00234 µM | 84.8 | 92.4 | 95.9
RPMI 5 mM glucose + 10% dialyzed FBS, 0.00702 µM | 82.2 | 94.4 | 84
RPMI 5 mM glucose + 10% dialyzed FBS, 0.0211 µM | 76.8 | 91.8 | 93
RPMI 5 mM glucose + 10% dialyzed FBS, 0.0632 µM | 82.2 | 93.4 | 85.7
RPMI 5 mM glucose + 10% dialyzed FBS, 0.19 µM | 75.6 | 81.5 | 92.3
RPMI 5 mM glucose + 10% dialyzed FBS, 0.569 µM | 67.8 | 86.7 | 86.1
RPMI 5 mM glucose + 10% dialyzed FBS, 1.71 µM | 69.2 | 78.9 | 77.2
RPMI 5 mM glucose + 10% dialyzed FBS, 5.12 µM | 48.3 | 63.7 | 62.2
RPMI 5 mM glucose + 10% dialyzed FBS, 15.4 µM | 48.2 | 51.6 | 58
RPMI 5 mM glucose + 10% dialyzed FBS, 46.1 µM | 87.7 | 83.3 | 89.2

AUC of viability dose-response curve
Settings | HPLM + 10% dialyzed FBS | RPMI 5 mM glucose + 10% FBS | RPMI 5 mM glucose + 10% dialyzed FBS
P12-Ichikawa [5] | 424 | 386 | 399
SEM cells [4] | 384 | 431 | 400

NCC1(CC(=O)O)CCCCC1
cell viability [%], SEM cells [1]
Settings | HPLM + 10% dialyzed FBS | RPMI 5 mM glucose + 10% dialyzed FBS
0.000781 µM | 102 | 126
0.00234 µM | 113 | 122
0.00702 µM | 107 | 113
0.0211 µM | 122 | 119
0.0632 µM | 120 | 124
0.19 µM | 130 | 117
0.569 µM | 96.2 | 78
1.71 µM | 59.5 | 59.1
5.12 µM | 121 | 140
15.4 µM | 127 | 136
46.1 µM | 132 | 112

AUC of viability dose-response curve
Settings | NOMO1 [6] | P12-Ichikawa [5] | SEM cells [4]
HPLM + 10% dialyzed FBS | 468 | 466 | 460
RPMI 5 mM glucose + 10% FBS | 442 | 434 | 475
RPMI 5 mM glucose + 10% dialyzed FBS | 458 | 459 | 459
